Data: PMC10866072, “Design, synthesis, molecular modelling and biological evaluation of novel 6-amino-5-cyano-2-thiopyrimidine derivatives as potent anticancer agents against leukemia and apoptotic inducers” (Journal of Enzyme Inhibition and Medicinal Chemistry, 2024)

How the values were obtained:
DU-145 = assay type: cell-based; conditions: Homo sapiens, one dose 10^-5 M, 48 h
SW-620 = assay type: cell-based; conditions: Homo sapiens, one dose 10^-5 M, 48 h
A549/ATCC = assay type: cell-based; conditions: Homo sapiens, one dose 10^-5 M, 48 h
HT29 = assay type: cell-based; conditions: Homo sapiens, HT-29, one dose 10^-5 M, 48 h
MDA-MB-435 = assay type: cell-based; conditions: Homo sapiens, one dose 10^-5 M, 48 h, read-out: % growth
SF-268 = assay type: cell-based; conditions: Homo sapiens, one dose 10^-5 M, 48 h, read-out: % growth
OVCAR-5 = assay type: cell-based; conditions: Homo sapiens, one dose 10^-5 M, 48 h
MOLT-4 = assay type: cell-based; conditions: Homo sapiens, one dose 10^-5 M, 48 h, read-out: % growth
CCRF-CEM = assay type: cell-based; conditions: Homo sapiens, one dose 10^-5 M, 48 h
IGROV1 = assay type: cell-based; conditions: Homo sapiens, IGROV-1, one dose 10^-5 M, 48 h, read-out: % growth
UACC-62 = assay type: cell-based; conditions: Homo sapiens, one dose 10^-5 M, 48 h
MDA-MB-231/ATCC = assay type: cell-based; conditions: Homo sapiens, one dose 10^-5 M, 48 h
MDA-MB-468 = assay type: cell-based; conditions: Homo sapiens, one dose 10^-5 M, 48 h
T-47D = assay type: cell-based; conditions: Homo sapiens, T47D, one dose 10^-5 M, 48 h, read-out: % growth
UACC-257 = assay type: cell-based; conditions: Homo sapiens, one dose 10^-5 M, 48 h
U251 = assay type: cell-based; conditions: Homo sapiens, U-251, one dose 10^-5 M, 48 h
SR = assay type: cell-based; conditions: Homo sapiens, one dose 10^-5 M, 48 h
SN12C = assay type: cell-based, human; conditions: Homo sapiens, one dose 10^-5 M, 48 h
HOP-62 = assay type: cell-based; conditions: Homo sapiens, one dose 10^-5 M, 48 h
SK-MEL-5 = assay type: cell-based; conditions: Homo sapiens, one dose 10^-5 M, 48 h, read-out: % growth
EKVX = assay type: cell-based; conditions: Homo sapiens, one dose 10^-5 M, 48 h
KM12 = assay type: cell-based; conditions: Homo sapiens, one dose 10^-5 M, 48 h
SNB-19 = assay type: cell-based; conditions: Homo sapiens, one dose 10^-5 M, 48 h, read-out: % growth
HS 578T = assay type: cell-based; conditions: Homo sapiens; one dose 10^-5 M, 48 h; HS 578T; read-out: % growth
M14 = assay type: cell-based; conditions: Homo sapiens, one dose 10^-5 M, 48 h
OVCAR-8 = assay type: cell-based; conditions: Homo sapiens, one dose 10^-5 M, 48 h
HL-60(TB) = assay type: cell-based; conditions: Homo sapiens, one dose 10^-5 M, 48 h
RPMI-8226 = assay type: cell-based; conditions: Homo sapiens, one dose 10^-5 M, 48 h
NCI-H460 = assay type: cell-based; conditions: Homo sapiens, one dose 10^-5 M, 48 h, read-out: % growth
PC-3 = assay type: cell-based; conditions: Homo sapiens, one dose 10^-5 M, 48 h
K-562 = assay type: cell-based; conditions: Homo sapiens, K562, one dose 10^-5 M, 48 h
OVCAR-4 = assay type: cell-based; conditions: Homo sapiens, one dose 10^-5 M, 48 h
SF-539 = assay type: cell-based; conditions: Homo sapiens, one dose 10^-5 M, 48 h
NCI-H226 = assay type: cell-based; conditions: Homo sapiens, one dose 10^-5 M, 48 h
HCT-15 = assay type: cell-based; conditions: Homo sapiens, one dose 10^-5 M, 48 h, read-out: % growth
NCI/ADR-RES = assay type: cell-based; conditions: Homo sapiens, one dose 10^-5 M, 48 h
SNB-75 = assay type: cell-based; conditions: Homo sapiens, one dose 10^-5 M, 48 h
HCT-116 = assay type: cell-based; conditions: Homo sapiens, one dose 10^-5 M, 48 h, read-out: % growth
OVCAR-3 = assay type: cell-based; conditions: Homo sapiens, one dose 10^-5 M, 48 h
A498 = assay type: cell-based; conditions: Homo sapiens, one dose 10^-5 M, 48 h
SK-OV-3 = assay type: cell-based; conditions: Homo sapiens, one dose 10^-5 M, 48 h
MCF7 = assay type: cell-based; conditions: Homo sapiens, one dose 10^-5 M, 48 h, read-out: % growth
UO-31 = assay type: cell-based; conditions: Homo sapiens, UO-31, 48 h, one dose 10^-5 M, 48 h
NCI-H23 = assay type: cell-based; conditions: Homo sapiens, one dose 10^-5 M, 48 h, read-out: % growth
BT-549 = assay type: cell-based; conditions: Homo sapiens, one dose 10^-5 M, 48 h
ACHN = assay type: cell-based; conditions: Homo sapiens, one dose 10^-5 M, 48 h
[1] = tested on: full NCI 60 cell lines panel; conditions: for activity at 10 µM: Homo sapiens, 60 cell, 48 h, read-out: Mean % growth; for activity on all 60 cancer cell lines tested (in words): one dose
LOX IMVI = assay type: cell-based; conditions: Homo sapiens, one dose 10^-5 M, 48 h, read-out: % growth
COLO 205 = assay type: cell-based; conditions: Homo sapiens, one dose 10^-5 M, 48 h
SK-MEL-28 = assay type: cell-based; conditions: Homo sapiens, one dose 10^-5 M, 48 h
TK-10 = assay type: cell-based; conditions: Homo sapiens, one dose 10^-5 M, 48 h
CAKI-1 = assay type: cell-based; conditions: Homo sapiens, CAKI-1, 48 h, one dose 10^-5 M, 48 h
NCI-H522 = assay type: cell-based; conditions: Homo sapiens, one dose 10^-5 M, 48 h
MALME-3M = assay type: cell-based; conditions: Homo sapiens, one dose 10^-5 M, 48 h
786-0 = assay type: cell-based; conditions: Homo sapiens, one dose 10^-5 M, 48 h
SF-295 = assay type: cell-based; conditions: Homo sapiens, one dose 10^-5 M, 48 h
HOP-92 = assay type: cell-based; conditions: Homo sapiens, one dose 10^-5 M, 48 h
SK-MEL-2 = assay type: cell-based; conditions: Homo sapiens, one dose 10^-5 M, 48 h
HCC-2998 = assay type: cell-based; conditions: Homo sapiens, one dose 10^-5 M, 48 h
RXF 393 = assay type: cell-based; conditions: Homo sapiens, RXF 393, 48 h, one dose 10^-5 M, 48 h, read-out: % growth

CN(C)c1ccc(-c2cc([N+](=O)[O-])ccc2C=NNC(=N)c2cnc(S)nc2N)cc1 [Compound 4c, 4-amino-N'-[6-[4-(dimethylamino)phenyl]-(4-nitrophenyl)methylene]-2-mercapto pyrimidine-5-carboximidohydrazide]
% growth at 10 µM (DU-145): 108% | % growth at 10 µM (SW-620): 109% | % growth at 10 µM (A549/ATCC): 104% | % growth at 10 µM (HT29): 109% | activity at 10 µM (MDA-MB-435): 102% | activity at 10 µM (SF-268): 87.8% | percent cell growth at 10 µM (OVCAR-5): 110% | activity at 10 µM (MOLT-4): 109% | % cell growth at 10 µM (CCRF-CEM): 84.4% | activity at 10 µM (IGROV1): 102% | % growth at 10 µM (UACC-62): 100% | % growth at 10 µM (MDA-MB-231/ATCC): 111% | percent cell growth at 10 µM (MDA-MB-468): 108% | activity at 10 µM (T-47D): 101% | percent cell growth at 10 µM (UACC-257): 106% | % growth at 10 µM (U251): 106% | percent cell growth at 10 µM (SR): 107% | % growth at 10 µM (SN12C): 99.5% | % growth at 10 µM (HOP-62): 102% | activity at 10 µM (SK-MEL-5): 103% | % cell growth at 10 µM (EKVX): 100% | % growth at 10 µM (KM12): 100% | activity at 10 µM (SNB-19): 97.2% | activity at 10 µM (HS 578T): 95.2% | % growth at 10 µM (M14): 110% | % growth of cells at 10 µM (OVCAR-8): 95.8% | % growth at 10 µM (HL-60(TB)): 96.4% | % growth at 10 µM (RPMI-8226): 97% | activity at 10 µM (NCI-H460): 108% | percent cell growth at 10 µM (PC-3): 94.1% | % growth at 10 µM (K-562): 104% | % growth at 10 µM (OVCAR-4): 101% | % growth at 10 µM (SF-539): 98.8% | % growth at 10 µM (NCI-H226): 112% | activity at 10 µM (HCT-15): 98.5% | cell growth percent at 10 µM (NCI/ADR-RES): 102% | % growth at 10 µM (SNB-75): 100% | activity at 10 µM (HCT-116): 106% | % growth at 10 µM (OVCAR-3): 106% | % growth at 10 µM (A498): 124% | % growth at 10 µM (SK-OV-3): 95.7% | activity at 10 µM (MCF7): 92% | % cell growth at 10 µM (UO-31): 75.4% | activity at 10 µM (NCI-H23): 104% | % cell growth at 10 µM (BT-549): 112% | % growth at 10 µM (ACHN): 103% | activity at 10 µM [1]: 103% | activity on all 60 cancer cell lines tested (in words) [1]: weak activity | activity at 10 µM (LOX IMVI): 99.3% | % growth at 10 µM (COLO 205): 127% | % cell growth at 10 µM (SK-MEL-28): 112% | % cell growth at 10 µM (TK-10): 102% | % growth at 10 µM (CAKI-1): 99.6% | % growth at 10 µM (NCI-H522): 96% | % growth at 10 µM (MALME-3M): 108% | % growth at 10 µM (786-0): 95.7% | % cell growth at 10 µM (SF-295): 92.4% | % growth at 10 µM (HOP-92): 118% | % growth at 10 µM (SK-MEL-2): 114%

Nc1nc(S)nc(-c2ccc(Cl)cc2)c1-c1ncn[nH]1 [Compound 5b, 4-Amino-6–(4-chlorophenyl)-5-(1H-1,2,4-triazol-5-yl)pyrimidine-2-thiol]
% growth at 10 µM (DU-145): 109% | % growth at 10 µM (SW-620): 103% | % growth at 10 µM (A549/ATCC): 110% | % growth at 10 µM (HT29): 95.4% | activity at 10 µM (MDA-MB-435): 103% | activity at 10 µM (SF-268): 96.7% | percent cell growth at 10 µM (OVCAR-5): 96.7% | activity at 10 µM (MOLT-4): 108% | % cell growth at 10 µM (CCRF-CEM): 97.9% | activity at 10 µM (IGROV1): 98.7% | % growth at 10 µM (UACC-62): 95.9% | % growth at 10 µM (MDA-MB-231/ATCC): 93.7% | percent cell growth at 10 µM (MDA-MB-468): 101% | activity at 10 µM (T-47D): 86.4% | percent cell growth at 10 µM (UACC-257): 112% | % growth at 10 µM (U251): 98.8% | percent cell growth at 10 µM (SR): 96.6% | % growth at 10 µM (SN12C): 93.5% | % growth at 10 µM (HOP-62): 88.6% | activity at 10 µM (SK-MEL-5): 98.7% | % cell growth at 10 µM (EKVX): 98% | % growth at 10 µM (KM12): 102% | activity at 10 µM (SNB-19): 91% | activity at 10 µM (HS 578T): 111% | % growth at 10 µM (M14): 98.9% | % growth of cells at 10 µM (OVCAR-8): 94.8% | % growth at 10 µM (HL-60(TB)): 108% | % growth at 10 µM (RPMI-8226): 98.6% | activity at 10 µM (NCI-H460): 110% | percent cell growth at 10 µM (PC-3): 85.5% | % growth at 10 µM (K-562): 103% | % growth at 10 µM (OVCAR-4): 112% | % growth at 10 µM (SF-539): 92.5% | % growth at 10 µM (NCI-H226): 92.7% | activity at 10 µM (HCT-15): 103% | % growth at 10 µM (HCC-2998): 94.8% | % growth at 10 µM (SNB-75): 78.7% | activity at 10 µM (HCT-116): 92.1% | % growth at 10 µM (OVCAR-3): 108% | % growth at 10 µM (A498): 109% | % growth at 10 µM (SK-OV-3): 85.5% | activity at 10 µM (MCF7): 93.8% | % cell growth at 10 µM (UO-31): 74.6% | activity at 10 µM (NCI-H23): 97% | % growth at 10 µM (ACHN): 96.9% | activity at 10 µM [1]: 98.4% | activity on all 60 cancer cell lines tested (in words) [1]: weak activity | activity at 10 µM (LOX IMVI): 99.2% | % cell growth at 10 µM (SK-MEL-28): 111% | % cell growth at 10 µM (TK-10): 109% | % growth at 10 µM (CAKI-1): 82.8% | % growth at 10 µM (NCI-H522): 85.5% | % growth at 10 µM (MALME-3M): 92.6% | % growth at 10 µM (786-0): 108% | % cell growth at 10 µM (SF-295): 93.7% | activity at 10 µM (RXF 393): 115% | % growth at 10 µM (HOP-92): 91.7% | % growth at 10 µM (SK-MEL-2): 108%
